Data on 37 compounds can be found in patent US20250313563A1, “GLYCOGEN SYNTHASE KINASE 3 INHIBITORS AND USES THEREOF” (The Broad Institute, Inc., priority 2022, published 2025).

Each structure is given as a SMILES string. Where two headings read alike, the source gives them in different places.

Test [1] addresses GSK3α (GST-full length GSK3α) (Homo sapiens (Human), UniProt P49840). Nature of the test: GSK3α TR-FRET kinase assay. The test is classed as biochemical. The method in brief: (§1)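 Compound preincubated 30 min, then 1 nM GST-full-length GSK3α or GSK3b run 100 min at ambient temperature with 200 nM biotinylated, S645-prephosphorylated glycogen synthase 631-650 peptide in Tris pH 7.5, MgCl2, DTT, BSA, 1% DMSO. ATP 4 μM (α) or 2 μM (β), or 1 mM. EDTA-quenched; Tb-anti-pSer641/streptavidin-d2 TR-FRET 665/615 ratio gave IC50.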
(In general: Time-resolved FRET reads energy transfer from a long-lived donor to a nearby acceptor.)

Test [2] addresses GSK3b (GST-full length GSK3b) (Homo sapiens (Human), UniProt P49841). Nature of the test: GSK3b TR-FRET kinase assay. The test is classed as biochemical. The procedure, abridged: as §1
Where [3] appears, read: 1 nM GSK3α, 4 μM ATP, 30 minute preincubation, Table 16, read-out: GSK3-A TR-FRET BIOCHEMICAL (TR-FRET).
Setting [4] is: 1 nM GSK3b, 2 μM ATP, 30 minute preincubation, Table 16, read-out: GSK3-B TR-FRET BIOCHEMICAL (TR-FRET).
The mark [5] stands for this setting: 1 nM GSK3α, 4 μM ATP, 30 minute preincubation, read-out: GSK3-A TR-FRET BIOCHEMICAL (TR-FRET), IC50.
The mark [6] stands for this setting: 1 nM GSK3b, 2 μM ATP, 30 minute preincubation, read-out: GSK3-B TR-FRET BIOCHEMICAL (TR-FRET), IC50.
The mark [7] stands for this setting: read-out: GSK3-A (TR-FRET 1 mM ATP), GMean, IC50, 1 mM ATP, geometric mean.
The mark [8] stands for this setting: read-out: GSK3-B (TR-FRET 1 mM ATP), GMean, IC50, 1 mM ATP, geometric mean.
[9] abbreviates: 1 nM GSK3α, 4 μM ATP, 30 minute preincubation, Table 16, read-out: GSK3-A TR-FRET BIOCHEMICAL (TR-FRET), IC50.
The mark [10] stands for this setting: 1 nM GSK3b, 2 μM ATP, 30 minute preincubation, Table 16, read-out: GSK3-B TR-FRET BIOCHEMICAL (TR-FRET), IC50.

GSK3α (GST-full length GSK3α), sequence (P49840 whole entry): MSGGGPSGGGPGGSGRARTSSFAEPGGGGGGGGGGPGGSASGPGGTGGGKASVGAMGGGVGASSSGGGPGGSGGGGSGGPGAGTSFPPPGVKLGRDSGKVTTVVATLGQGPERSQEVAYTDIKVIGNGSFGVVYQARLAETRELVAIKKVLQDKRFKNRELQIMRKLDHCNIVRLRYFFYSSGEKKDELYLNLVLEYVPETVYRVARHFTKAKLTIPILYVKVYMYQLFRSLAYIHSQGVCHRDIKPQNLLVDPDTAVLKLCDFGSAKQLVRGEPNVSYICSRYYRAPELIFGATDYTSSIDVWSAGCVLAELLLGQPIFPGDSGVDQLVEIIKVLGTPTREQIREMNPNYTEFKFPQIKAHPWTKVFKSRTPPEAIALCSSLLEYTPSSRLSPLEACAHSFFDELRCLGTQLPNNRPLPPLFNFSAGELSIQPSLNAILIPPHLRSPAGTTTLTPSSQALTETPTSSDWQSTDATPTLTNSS
GSK3b (GST-full length GSK3b), sequence (P49841 whole entry): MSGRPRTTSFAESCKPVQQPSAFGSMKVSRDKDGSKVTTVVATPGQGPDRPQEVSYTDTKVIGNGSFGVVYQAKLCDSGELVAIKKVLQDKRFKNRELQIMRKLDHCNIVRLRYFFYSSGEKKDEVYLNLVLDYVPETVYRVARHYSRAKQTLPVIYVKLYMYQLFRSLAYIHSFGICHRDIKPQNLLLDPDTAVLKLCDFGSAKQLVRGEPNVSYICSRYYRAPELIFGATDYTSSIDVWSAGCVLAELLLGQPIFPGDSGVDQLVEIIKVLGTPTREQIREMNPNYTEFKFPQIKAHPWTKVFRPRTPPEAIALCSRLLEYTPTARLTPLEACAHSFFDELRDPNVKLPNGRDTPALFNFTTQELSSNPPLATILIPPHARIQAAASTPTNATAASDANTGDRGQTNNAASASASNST

Turning to `CC[C@@]1(c2cccc(-c3ccnc4c3CCCC4)c2)C2=C(CC(C)(C)CC2=O)Nc2n[nH]cc21` [Compound 944036], the IC50 in test [1] (setting [3]) was 1 to 5 µM; in test [2] (setting [4]), more than 5 µM.

In the case of `CC1(C)CC(=O)C2=C(C1)Nc1n[nH]cc1C21COC2(CN(C(=O)C3CCC4(CC3)COC4)C2)C1` (centres unmarked) [Compound 944075], the values for the IC50 in test [1] (setting [5]) and in test [2] (setting [6]) were not above 0.1 µM and 0.1 to 1 µM, respectively.

Regarding `CCC1(c2cccc(N(C)c3nccc(C)n3)c2)C2=C(CC(C)(C)CC2=O)Nc2n[nH]cc21` (centres unmarked) [Compound 945328], the IC50 in test [1] (setting [3]) was not above 0.1 µM; in test [1] (setting [7]) it was not above 0.1 µM; in test [2] (setting [4]), not above 0.1 µM; in test [2] (setting [8]), 0.1 to 1 µM.

As to `CC[C@]1(c2cccc(N(C)c3nccc(C)n3)c2)C2=C(CC(C)(C)CC2=O)Nc2n[nH]cc21` [Compound 945329], the figures for the IC50 in test [1] (setting [3]) and in test [2] (setting [4]) were 0.1 to 1 µM and 1 to 5 µM, respectively.

Turning to `CCC1(c2cccc(C(F)(F)F)c2)C2=C(CC(c3ccccc3)NC2=O)Nc2n[nH]cc21` (centres unmarked) [Compound 945363], the values for the IC50 in test [1] (setting [5]) and in test [2] (setting [6]) were 1 to 5 µM and more than 5 µM, respectively.

Turning to `CC[C@]1(c2cccc(C(F)(F)F)c2)C2=C(C[C@H](c3ccccc3)NC2=O)Nc2n[nH]cc21` [Compound 945364], the IC50 in test [1] (setting [5]) and in test [2] (setting [6]) was more than 5 µM in each case.

Consider `CCC1(c2cccc(C(F)(F)F)c2)C2=C(CN(C)C2=O)Nc2n[nH]cc21` (centres unmarked) [Compound 945367], for which the IC50 in test [1] (setting [5]) lay in the range of 0.1 to 1 µM; in test [2] (setting [6]), 1 to 5 µM.

With `CC[C@]1(c2cccc(C(F)(F)F)c2)C2=C(CN(C)C2=O)Nc2n[nH]cc21` [Compound 945368], the IC50 in test [1] (setting [5]) and in test [2] (setting [6]) was more than 5 µM in each case.

`CC[C@@]1(c2cccc(C(F)(F)F)c2)C2=C(CN(c3ccccc3)C2=O)Nc2n[nH]cc21` [Compound 945376]: the IC50 in test [1] (setting [5]) and in test [2] (setting [6]) was more than 5 µM in each case.

As for `CCC1(c2cccc(C(F)(F)F)c2)C2=C(CN(c3ccccc3)C2=O)Nc2n[nH]cc21` (centres unmarked) [Compound 945377], the IC50 in test [1] (setting [5]) is 0.1 to 1 µM; in test [2] (setting [6]), 1 to 5 µM.

With `CCC1(c2cccc(C(F)(F)F)c2)C2=C(Nc3n[nH]cc31)C(C)NC2=O` (centres unmarked) [Compound 945378], the IC50 was not above 0.1 µM in test [1] (setting [5]) and 0.1 to 1 µM in test [2] (setting [6]).

For `CCC1(c2cccc(C(F)(F)F)c2)C2=C(Nc3n[nH]cc31)C(C)NC2=O` (centres unmarked) [Compound 945379], the IC50 in test [1] (setting [5]) was 0.1 to 1 µM; in test [2] (setting [6]) it was 1 to 5 µM.

Regarding `CC[C@]1(c2cccc(C(F)(F)F)c2)C2=C(Nc3n[nH]cc31)[C@@H](C)NC2=O` [Compound 945380], the IC50 in test [1] (setting [5]) and in test [2] (setting [6]) was more than 5 µM throughout.

On to `CC[C@]1(c2cccc(C(F)(F)F)c2)C2=C(Nc3n[nH]cc31)[C@H](C)NC2=O` [Compound 945381], for which the IC50 in test [1] (setting [5]) and in test [2] (setting [6]) was more than 5 µM each time.

As for `CCC1(c2cccc(C(F)(F)F)c2)C2=C(Nc3n[nH]cc31)C(C)CNC2=O` (centres unmarked) [Compound 945382], the IC50 in test [1] (setting [5]) was not above 0.1 µM; in test [2] (setting [6]), 0.1 to 1 µM.

For the compound `CC[C@@]1(c2cccc(C(F)(F)F)c2)C2=C(Nc3n[nH]cc31)[C@H](C)CNC2=O` [Compound 945383], the IC50 is not above 0.1 µM in test [1] (setting [5]) and 0.1 to 1 µM in test [2] (setting [6]).

As for `CCC1(c2cccc(C(F)(F)F)c2)C2=C(Nc3n[nH]cc31)C(C)CNC2=O` (centres unmarked) [Compound 945384], the IC50 in test [1] (setting [5]) was 1 to 5 µM; in test [2] (setting [6]), more than 5 µM.

Regarding `CC[C@]1(c2cccc(C(F)(F)F)c2)C2=C(Nc3n[nH]cc31)[C@H](C)CNC2=O` [Compound 945385], the IC50 in test [1] (setting [5]) and in test [2] (setting [6]) was more than 5 µM in each case.

On to `CC1(C)CC(=O)C2=C(C1)Nc1n[nH]cc1C21CCC(C(=O)N2CCCC2)CC1` (centres unmarked) [Compound 945394], for which the IC50 in test [1] (setting [3]) fell in the range of 0.1 to 1 µM; in test [2] (setting [4]) it was 1 to 5 µM.

With `CN(C)C(=O)C1CCC2(CC1)C1=C(CC(C)(C)CC1=O)Nc1n[nH]cc12` (centres unmarked) [Compound 945395], the IC50 in test [1] (setting [9]) lay in the range of 0.1 to 1 µM; in test [2] (setting [10]), 1 to 5 µM.

As to `CC1(C)CC(=O)C2=C(C1)Nc1n[nH]cc1C21CCC(C(=O)N2CCCC2)CC1` (centres unmarked) [Compound 945396], the IC50 in test [1] (setting [3]) and in test [2] (setting [4]) was 0.1 to 1 µM in each case.

As for `CNC(=O)C1CCC2(CC1)C1=C(CC(C)(C)CC1=O)Nc1n[nH]cc12` (centres unmarked) [Compound 945397], the IC50 in test [1] (setting [3]) and in test [2] (setting [4]) was 0.1 to 1 µM each time.

Turning to `CC1(C)CC(=O)C2=C(C1)Nc1n[nH]cc1C21COC2(CN(C(=O)C3CCOCC3)C2)C1` (centres unmarked) [Compound 945407], the IC50 is not above 0.1 µM in test [1] (setting [5]) and 0.1 to 1 µM in test [2] (setting [6]).

With `CCC1(c2cccc(-c3ccnc(C)c3OC)c2)C2=C(CC(C)(C)CC2=O)Nc2n[nH]cc21` (centres unmarked) [Compound 945458], the IC50 in test [1] (setting [3]) and in test [2] (setting [4]) was not above 0.1 µM throughout.

As for `CCC1(c2cccc(-c3cn[nH]c3)c2)C2=C(CC(C)(C)NC2=O)Nc2n[nH]c(C)c21` (centres unmarked) [Compound 945459], the IC50 in test [1] (setting [5]) and in test [2] (setting [6]) was not above 0.1 µM each time.

On to `CCC1(c2cccc(-c3cn(C)nc3C)c2)C2=C(CC(C)(C)NC2=O)Nc2n[nH]c(C)c21` (centres unmarked) [Compound 945460], for which the IC50 in test [1] (setting [5]) and in test [2] (setting [6]) was not above 0.1 µM throughout.

Turning to `CCC1(c2cccc(-c3ccncc3C)c2)C2=C(CC(C)(C)NC2=O)Nc2n[nH]cc21` (centres unmarked) [Compound 945461], the IC50 in test [1] (setting [5]) and in test [2] (setting [6]) was not above 0.1 µM throughout.

For `CCC1(c2cccc(-c3c(C)nn(C)c3C)c2)C2=C(CC(C)(C)NC2=O)Nc2n[nH]cc21` (centres unmarked) [Compound 945462], the IC50 in test [1] (setting [5]) and in test [2] (setting [6]) was not above 0.1 µM each time.

For the compound `CCC1(c2cccc(S(=O)(=O)C(C)C)c2)C2=C(CC(C)(C)NC2=O)Nc2n[nH]cc21` (centres unmarked) [Compound 945464], the IC50 in test [1] (setting [5]) and in test [2] (setting [6]) was not above 0.1 µM each time.

With `CCC1(c2cccc(N(C)C3CC3)c2)C2=C(CC(C)(C)CC2=O)Nc2n[nH]cc21` (centres unmarked) [Compound 945466], the IC50 in test [1] (setting [3]) lay within 0.1 to 1 µM; in test [2] (setting [4]) it was 1 to 5 µM.

`CCC1(c2cccc(-c3cc(C)ncc3OC)c2)C2=C(CC(C)(C)CC2=O)Nc2n[nH]cc21` (centres unmarked) [Compound 945468]: the IC50 in test [1] (setting [3]) is not above 0.1 µM; in test [2] (setting [4]), 0.1 to 1 µM.

With `CC[C@@]1(c2cccc(-c3ccncc3CO)c2)C2=C(CC(C)(C)CC2=O)Nc2n[nH]cc21` [Compound 945469], the IC50 in test [1] (setting [3]) and in test [2] (setting [4]) was not above 0.1 µM in each case.

With `CC[C@]1(c2cccc(-c3cn(C)nc3C)c2)C2=C(CC(C)(C)NC2=O)Nc2n[nH]cc21` [Compound 945470], the IC50 in test [1] (setting [5]) was not above 0.1 µM; in test [1] (setting [7]), 0.1 to 1 µM; in test [2] (setting [6]) it was not above 0.1 µM; in test [2] (setting [8]), 1 to 5 µM.

Regarding `CC[C@]1(c2cccc(-c3ccncc3OC)c2)C2=C(CC(C)(C)CC2=O)Nc2n[nH]cc21` [Compound 945471], the IC50 is 1 to 5 µM in test [1] (setting [3]), more than 5 µM in test [1] (setting [7]), 1 to 5 µM in test [2] (setting [4]) and more than 5 µM in test [2] (setting [8]).

With `CC[C@]1(c2cccc(N(C)c3ccc(C(F)(F)F)nc3)c2)C2=C(CC(C)(C)CC2=O)Nc2n[nH]cc21` [Compound 945474], the IC50 in test [1] (setting [3]) was not above 0.1 µM; in test [2] (setting [4]), 0.1 to 1 µM.

For the compound `CC1(C)CC(=O)C2=C(C1)Nc1n[nH]cc1C21CN(c2ccccn2)C1` [Compound 945477], the IC50 in test [1] (setting [9]) and in test [2] (setting [10]) was 1 to 5 µM each time.

Turning to `CC1(C)CC(=O)C2=C(C1)Nc1n[nH]cc1C21CN(c2ccc(C(F)(F)F)cc2)C1` [Compound 945478], the IC50 in test [1] (setting [3]) and in test [2] (setting [4]) was 0.1 to 1 µM each time.
